# Measured values published in paper PMC3636874, “An Antedrug of the CXCL12 Neutraligand Blocks Experimental Allergic Asthma without Systemic Effect in Mice” (The Journal of Biological Chemistry, 2013).
# Where two headings read alike, the source gives them in different places.
# What was measured:
# CXCL12 binding to CXCR4 = target: T1, CXCL12 binding to CXCR4 (Homo sapiens, UniProt P48061); test: FRET-based binding of CXCL12-TR to EGFP-hCXCR4 (competition); conditions: dose-dependent
# T1 construct: expressed in transfected cells
# Experimental: FRET-based binding experiments were carried out as described ([26], [46]). Human embryonic kidney 293 cells expressing the fusion receptor EGFP-hCXCR4 were harvested in PBS (137 mM NaCl, 2.7 mM KCl, 4.3 mM Na2PO4·7H2O, 1.4 mM KH2PO4, pH 7.4) supplemented with 5 mM EDTA, pH 7.4, centrifuged, and resuspended in HEPES-bovine serum albumin (BSA) buffer (10 mM HEPES, 137.5 mM NaCl, 1.25 mM MgCl2, 1.25 mM CaCl2, 6 mM KCl, 10 mM glucose, 0.4 mM NaH2PO4, 0.1% bovine serum albumin (w/v), pH 7.4). Cells were used at a concentration of 10^6 cells/ml. Apparent affinities of the different ligands were determined by real-time fluorescence monitoring ligand-receptor interactions. […] Fluorescence emitted at 510 nm (excitation at 470 nm) was recorded at 21 °C using a Fluorolog 2 spectrofluorimeter (SPEX) and sampled every 0.3 s. Binding of CXCL12-TR to EGFP-labeled CXCR4 was detected as a reversible decline of emission at 510 nm, due to energy transfer from excited EGFP to TR. For competition experiments, the fluorescent chemokine was preincubated for 1 h at room temperature with or without various concentrations of each chalcone. Then the premix was added, and fluorescence was recorded until equilibrium was reached (300 s). Data were analyzed using Kaleidagraph 3.08 software (Synergy Software, Reading, PA).
# [1] = Chemical stability in PBS pH 7.4; format: physicochemical
# Experimental: Solubility and stability studies were performed on a Gilson HPLC system with a photodiode array detector, an autosampler, and a Valco injector. Data acquisition and processing were performed with Trilution LC version 2.0 software. Measurements were carried out at 21 ± 1 °C. A 2.6-μm Kinetex column (50 × 4.6 mm) was used for stability studies in biological media, and a 5-μm Luna C18(2) column (50 × 4.6 mm) was used for solubility and chemical stability analysis. Both columns were purchased from Phenomenex. The injection volume was 20 μl, the mobile phase flow rate was 2 ml/min, and the following program was applied for the elution: 0–0.2 min, 0% B; 0.2–2.7 min, 0–100% B; 2.7–3.2 min, 100% B; 3.2–3.4 min, 100–0% B; 3.4–6.1 min, 0% B. Solvent B was HPLC grade acetonitrile (Sigma-Aldrich CHROMASOLV). The aqueous solvent contained 0.1% trifluoroacetic acid, and the detection wavelength was 365 nm.
# Stability of compounds was assessed in PBS, pH 7.4, with or without 10% HP-βCD at 20 °C up to 24 h. For each compound, the 10 mM DMSO stock solution was diluted to a final incubation concentration of 10 μM with 0.1% DMSO. 20 μl of sample were removed at t0, 1, 2, 4, 6, 8, 10, and 24 h and directly injected onto the HPLC. The percentage of remaining test compound relative to t0 was measured by monitoring the peak area on the chromatogram.
compound,measurement,setting,value
"COc1cc(/C=C(\C#N)C(=O)c2ccc(Cl)cc2)ccc1O [CN-chalcone 4, (E)-2-(4-chlorobenzoyl)-3-(4-hydroxy-3-methoxyphenyl)acrylonitrile]",concentration giving maximal inhibition of CXCL12 binding to CXCR4,CXCL12 binding to CXCR4,> 1 µM
same,half-life at 10 μM,"[1]; PBS pH 7.4, 20 °C, read-out: Stability half-life (t1/2), PBS (converted)",6 h
same,half-life at 10 μM,"[1]; PBS with 10% HP-βCD, PBS pH 7.4 with 10% HP-βCD, 20 °C, read-out: Stability half-life (t1/2), PBS, 10% β-cyclodextrine (converted)",16.3 h
